Reference: article PMC6920847, “2-Hydroxy-N-phenylbenzamides and Their Esters Inhibit Acetylcholinesterase and Butyrylcholinesterase” (Biomolecules, 2019)
Values joined by “and” are separate entries in the source; they are usually repeats but may differ in a detail not shown here. Identical values can stand only once. “Also recorded” adds a separate entry of the source. Like-named read-outs stand apart in the source and are kept apart here.

Columns and labels:
[1] = target: T1, AChE from electric eel (EeAChE) (Electrophorus electricus, UniProt O42275); conditions: SI = IC50 for AChE/IC50 for BuChE; cited from earlier work
T1 construct: Acetylcholinesterase was obtained from electric eel (Electrophorus electricus L.); purchased Sigma-Aldrich (Prague, Czech Republic); host or cells: electric eel (natural source)
T1 sequence (O42275 24-633): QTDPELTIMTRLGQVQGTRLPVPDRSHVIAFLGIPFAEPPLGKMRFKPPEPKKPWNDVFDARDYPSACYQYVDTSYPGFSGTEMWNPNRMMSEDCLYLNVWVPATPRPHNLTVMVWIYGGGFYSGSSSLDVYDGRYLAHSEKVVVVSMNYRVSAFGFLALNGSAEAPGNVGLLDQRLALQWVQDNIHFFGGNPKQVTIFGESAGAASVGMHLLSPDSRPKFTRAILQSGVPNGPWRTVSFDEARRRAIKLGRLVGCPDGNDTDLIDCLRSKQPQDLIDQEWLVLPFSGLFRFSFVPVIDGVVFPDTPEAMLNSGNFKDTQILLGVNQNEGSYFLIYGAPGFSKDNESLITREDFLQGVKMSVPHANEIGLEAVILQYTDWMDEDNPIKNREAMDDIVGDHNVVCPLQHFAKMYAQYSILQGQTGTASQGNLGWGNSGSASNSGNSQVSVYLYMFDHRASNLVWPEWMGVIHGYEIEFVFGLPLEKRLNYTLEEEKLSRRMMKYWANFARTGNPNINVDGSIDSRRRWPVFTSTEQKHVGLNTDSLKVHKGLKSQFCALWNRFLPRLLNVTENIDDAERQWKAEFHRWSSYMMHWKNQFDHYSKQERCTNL

[2] = target: T2, BuChE from equine serum (EqBuChE) (Equus caballus, UniProt P81908); experiment: Inhibition of BuChE, modified Ellman's spectrophotometric method; assay type: biochemical; conditions: for Enhancement of BuChE inhibition compared to parent 3k: ratio of IC50 values vs parent 3k
T2 construct: butyrylcholinesterase was from an equine serum; purchased Sigma-Aldrich (Prague, Czech Republic); host or cells: equine serum (natural source)
T2 sequence (P81908 whole entry): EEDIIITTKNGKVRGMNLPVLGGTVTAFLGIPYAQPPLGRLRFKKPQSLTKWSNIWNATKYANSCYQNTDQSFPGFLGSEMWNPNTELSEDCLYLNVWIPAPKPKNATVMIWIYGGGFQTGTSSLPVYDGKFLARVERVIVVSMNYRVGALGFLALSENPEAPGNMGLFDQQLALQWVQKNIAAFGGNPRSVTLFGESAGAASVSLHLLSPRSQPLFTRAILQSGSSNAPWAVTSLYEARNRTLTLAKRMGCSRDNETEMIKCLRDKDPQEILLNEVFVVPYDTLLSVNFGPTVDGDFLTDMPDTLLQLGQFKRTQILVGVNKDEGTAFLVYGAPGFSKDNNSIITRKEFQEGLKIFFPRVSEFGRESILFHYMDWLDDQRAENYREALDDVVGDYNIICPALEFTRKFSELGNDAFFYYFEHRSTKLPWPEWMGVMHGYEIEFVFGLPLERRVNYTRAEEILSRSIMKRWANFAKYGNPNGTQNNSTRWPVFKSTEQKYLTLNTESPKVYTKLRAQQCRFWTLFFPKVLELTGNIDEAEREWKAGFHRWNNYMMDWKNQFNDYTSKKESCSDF
Procedure: (§1) The IC50 values were determined using the spectrophotometric Ellman’s method modified according to Zdražilová et al., which is a simple, rapid and direct method to determine the SH and -S-S- group content in proteins. This method is widely used for the screening of the efficiency of cholinesterases inhibitors. The enzymatic activity is measured indirectly by quantifying the concentration of the 5-thio-2-nitrobenzoic acid ion formed in the reaction between the thiol reagent 5,5′-dithio-bis(2-nitrobenzoic acid) and thiocholine, a product of substrate hydrolysis (i.e., acetylthiocholine; ATCH) by cholinesterases.
(§2) The enzyme activity in final reaction mixture (2000 µL) was 0.2 U/mL, concentration of acetylthiocholine (or butyrylthiocholine, BTCH) 40 µM and concentration of 5,5′-dithio-bis(2-nitrobenzoic acid) 0.1 mM for all reactions. The tested compounds were dissolved in DMSO and then diluted in demineralized water to the concentration of 1 µM. […] All measurements were carried in triplicate and the average values of reaction rate (v0-uninhibited reaction, vi-inhibited reaction) were used for construction of the dependence v0/vi vs. concentration of inhibitor. From obtained equation of regression curve, the value of IC50 was calculated (based on the definition of IC50).
(§3) Acetylcholinesterase was obtained from electric eel (Electrophorus electricus L.) and butyrylcholinesterase was from an equine serum.
(§4) Thirty-six benzamides 1–4l were evaluated as potential inhibitors of AChE from electric eel (EeAChE) and BuChE from equine serum (EqBuChE) using Ellman’s spectrophotometric method modified according to Zdražilová et al.. Their efficacy is expressed as IC50, i.e., the concentration required for 50% inhibition of the enzymatic activity. Based on inhibition of both cholinesterases, we calculated selectivity indexes (SI) as the ratio of IC50 value for AChE/IC50 value for BuChE to express the selectivity quantitatively (Table 1).

[3] = target: T2, BuChE from equine serum (EqBuChE); conditions: mean ± SD; cited from earlier work
[4] = target: T3, AChE (Electrophorus electricus, UniProt O42275); experiment: Type of inhibition, Lineweaver-Burk plot; assay type: biochemical, electric eel (Electrophorus electricus L.); conditions: ATCH 20–80 µM
T3 construct: Acetylcholinesterase was obtained from electric eel (Electrophorus electricus L.); purchased Sigma-Aldrich (Prague, Czech Republic); host or cells: electric eel (natural source)
T3 sequence (O42275 24-633): as the sequence (O42275 24-633) above
Procedure: (§5) For the determination of the type of inhibition Lineweaver-Burk plot was used and the measuring procedure was similar to that for the determination of IC50 (modified Ellman’s method was used). The enzyme activity in the final reaction mixture (2000 µL) was 0.2 U/mL, a concentration of ATCH or BTCH 20–80 µM and a concentration of 5,5′-dithio-bis(2-nitrobenzoic acid) 0.1 mM. For each of the substrate concentrations, four different concentrations of inhibitor were chosen. The dependence absorbance vs. time was observed and the reaction rate was calculated. All measurements were carried in duplicate and the average values of reaction rate were used for the construction of the Lineweaver-Burk plot. From obtained equations of regression curves, the values of KM (Michaelis constant) and Vm (maximum velocity) were calculated and the type of inhibition was evaluated.
(§6) The type of inhibition could be distinguished based on the Lineweaver-Burk plot and the comparison of the kinetic parameters KM and Vm of uninhibited and inhibited reactions. The diagnostic criterion for competitive inhibition is that Vm is unaffected by inhibitor and KM for inhibited reaction is increased. All lines in Lineweaver-Burk plot share a common y-intercept. For non-competitive inhibitor KM is unchanged, but Vm of inhibited reaction is decreased. All lines in Lineweaver-Burk plot share a common x-intercept. […]

[5] = target: T4, BuChE (Equus caballus, UniProt P81908); experiment: Type of inhibition, Lineweaver-Burk plot; assay type: biochemical, equine; conditions: BTCH 20–80 µM
T4 construct: butyrylcholinesterase was from an equine serum; purchased Sigma-Aldrich (Prague, Czech Republic); host or cells: equine serum (natural source)
T4 sequence (P81908 whole entry): as the sequence (P81908 whole entry) above
Procedure: as §5, §6

[6] = target: T5, butyrylcholinesterase (Equus caballus, UniProt P81908); experiment: Mechanism of inhibition, dependence log% A vs. time; assay type: biochemical, equine; conditions: inhibitor 3, 6, 9 µM; prolonged incubation
T5 construct: butyrylcholinesterase was from an equine serum; purchased Sigma-Aldrich (Prague, Czech Republic); host or cells: equine serum (natural source)
T5 sequence (P81908 whole entry): as above
Procedure: (§7) The determination of mechanism of enzyme inhibition was described in detail previously. The inhibitor 5c was evaluated at three different concentrations for each enzyme.
(§8) Based on the changes of enzyme activity in the presence of tested inhibitor during prolonged incubation, it is possible to distinguish reversible, pseudo-irreversible and irreversible inhibition. In the case of reversible inhibition, the inhibitor is bound to the enzyme for a short period of time, the activity of the enzyme goes down immediately and, after dissociation of complex enzyme-inhibitor, the enzyme activity is restored. […] For irreversible inhibition, covalent and permanent bond between enzyme and inhibitor is typical and therefore the enzyme becomes inactivated. Irreversible inhibitor decreases enzyme activity successively and the dependence log% A vs. time in the presence of inhibitor is linear.
(§9) The procedure of measurement and data evaluation were in detail described previously in the reference. From the dependence log% A vs. time the mechanism of action of tested inhibitor can be deduced.
Figure 2 The dependence log% A vs. time. Enzyme: butyrylcholinesterase, derivative 5c, concentration of inhibitor: 3 µM (rhomb), 6 µM (square), 9 µM (triangle).

[7] = target: T6, acetylcholinesterase (Electrophorus electricus, UniProt O42275); experiment: as above; assay type: biochemical, electric eel (Electrophorus electricus L.); conditions: inhibitor 10, 30, 90 µM; prolonged incubation
T6 construct: Acetylcholinesterase was obtained from electric eel (Electrophorus electricus L.); purchased Sigma-Aldrich (Prague, Czech Republic); host or cells: electric eel (natural source)
T6 sequence (O42275 24-633): as the sequence (O42275 24-633) above
Procedure: as §7, §8, §9
Figure 1 The dependence log% A vs. time. Enzyme: acetylcholinesterase, derivative 5c, concentration of inhibitor: 10 µM (rhomb), 30 µM (square), 90 µM (triangle).

[8] = target: T1, AChE from electric eel (EeAChE); experiment: Inhibition of AChE, modified Ellman's spectrophotometric method; assay type: biochemical, electric eel (Electrophorus electricus L.)
Procedure: as §1, §2, §3, §4

## CCOP(=O)(OCC)Oc1cc(Cl)ccc1C(=O)Nc1ccc(C(F)(F)F)cc1 [Compound 5a]
[1]
  Selectivity AChE/BuChE: 8.77
[2]
  Enhancement of BuChE inhibition compared to parent 3k: up to 20.3 times
[3]
  IC50: 9.84 ± 0.06 µM

## CCOP(OCC)Oc1cc(Cl)ccc1C(=O)Nc1ccc(C(F)(F)F)cc1 [Compound 5c, 5-Chloro-2-{[4-(trifluoromethyl)phenyl]carbamoyl}phenyl diethyl phosphite]
[4]
  Type of inhibition (AChE): mixed inhibition; also recorded: mixed inhibitory mechanism
[5]
  Type of inhibition (BuChE): mixed inhibition; also recorded: mixed inhibitory mechanism
[2]; mean ± SD, n = three experiments, read-out: IC50 (EqBuChE)
  IC50: 2.4 µM and 2.37 µM
[2]; phosphite 5c vs phosphate 5a
  Improvement of activity against BuChE compared to phosphate 5a: 4.2 times
[2]
  Enhancement of BuChE inhibition compared to parent 3k: 84.2 times
[6]
  Mechanism of inhibition (BuChE): pseudo-irreversible inhibitor; also recorded: pseudo-irreversible inhibition
[7]
  Mechanism of inhibition (AChE): pseudo-irreversible inhibitor; also recorded: pseudo-irreversible inhibition
[8]; SI = IC50 for AChE/IC50 for BuChE, SI lower than 1 means selectivity for AChE
  Selectivity AChE/BuChE: 28.00
[8]; mean ± SD, n = three experiments, read-out: IC50 (EeAChE)
  IC50: 66.4 ± 1.14 µM
